Earlier results, collected in patent publication US20110287437A1, “ASSAYS TO PREDICT CARDIOTOXICITY” (priority 2010, published 2011).

How the values were obtained:
[1] = assessment from public literature and internal data; training set N=19
[2] = treatment of patients; prescribing information

Row | Molecule | Cardiotoxicity [1] | Cardiotoxicity / adverse cardiac effects reported [2]
1 | C#Cc1cccc(Nc2ncnc3cc(OCCOC)c(OCCOC)cc23)c1 [Tarceva] | Negative | –
2 | CNC(=O)c1cc(Oc2ccc(NC(=O)Nc3ccc(Cl)c(C(F)(F)F)c3)cc2)ccn1 [Nexavar, sorafenib] | Positive | mentioned in the prescribing information
3 | Cc1nc(Nc2ncc(C(=O)Nc3c(C)cccc3Cl)s2)cc(N2CCN(CCO)CC2)n1 [Sprycel, dasatinib] | Positive | mentioned in the prescribing information
4 | COc1cc2c(Nc3ccc(Br)cc3F)ncnc2cc1OCC1CCN(C)CC1 [Zactima] | Positive | –
5 | COc1cccc2c1C(=O)c1c(O)c3c(c(O)c1C2=O)C[C@@](O)(C(=O)CO)C[C@@H]3O[C@H]1C[C@H](N)[C@H](O)[C@H](C)O1 [Doxorubicin] | Positive | –
6 | CO[C@H]1C[C@@H]2CC[C@@H](C)[C@@](O)(O2)C(=O)C(=O)N2CCCC[C@H]2C(=O)O[C@H]([C@H](C)C[C@@H]2CC[C@@H](OCCO)[C@H](OC)C2)CC(=O)[C@H](C)/C=C(\C)[C@@H](O)[C@@H](OC)C(=O)[C@H](C)C[C@H](C)/C=C/C=C/C=C/1C [Everolimus] | Positive | –
7 | CCN(CC)CCNC(=O)c1c(C)[nH]c(/C=C2\C(=O)Nc3ccc(F)cc32)c1C [Sutent, sunitinib] | Positive | mentioned in the prescribing information
8 | Cc1cn(-c2cc(NC(=O)c3ccc(C)c(Nc4nccc(-c5cccnc5)n4)c3)cc(C(F)(F)F)c2)cn1 [Nilotinib] | Positive | –
9 | COc1ccc2c(O[C@@H]3C[C@H]4C(=O)N[C@]5(C(=O)O)C[C@H]5/C=C\CCCCC[C@H](NC(=O)OC5CCCC5)C(=O)N4C3)cc(-c3csc(NC(C)C)n3)nc2c1 [BILN 2061] | Positive | –
10 | bevacizumab: bevacizumab (Avastin) | – | mentioned in the prescribing information
11 | COc1cc2ncnc(Nc3ccc(F)c(Cl)c3)c2cc1OCCCN1CCOCC1 [Iressa] | Negative | –
12 | CS(=O)(=O)CCNCc1ccc(-c2ccc3ncnc(Nc4ccc(OCc5cccc(F)c5)c(Cl)c4)c3c2)o1 [Tykerb] | Negative | –
